This passage reports Ki results from ChEMBL document CHEMBL1268917, “Synthesis and biological evaluation of radio-iodinated benzimidazoles as SPECT imaging agents for NR2B subtype of NMDA receptor” (Bioorg Med Chem, 2010).

This assay has as its target Glutamate receptor ionotropic, NMDA 2B (Rattus norvegicus, UniProt Q00960). As to the kind of experiment: Displacement of [3H]ifenprodil from NR2B receptor in rat cortical synaptic membranes. The format is cell membranes, Membrane.

Glutamate receptor ionotropic, NMDA 2B, sequence (Q00960 whole entry): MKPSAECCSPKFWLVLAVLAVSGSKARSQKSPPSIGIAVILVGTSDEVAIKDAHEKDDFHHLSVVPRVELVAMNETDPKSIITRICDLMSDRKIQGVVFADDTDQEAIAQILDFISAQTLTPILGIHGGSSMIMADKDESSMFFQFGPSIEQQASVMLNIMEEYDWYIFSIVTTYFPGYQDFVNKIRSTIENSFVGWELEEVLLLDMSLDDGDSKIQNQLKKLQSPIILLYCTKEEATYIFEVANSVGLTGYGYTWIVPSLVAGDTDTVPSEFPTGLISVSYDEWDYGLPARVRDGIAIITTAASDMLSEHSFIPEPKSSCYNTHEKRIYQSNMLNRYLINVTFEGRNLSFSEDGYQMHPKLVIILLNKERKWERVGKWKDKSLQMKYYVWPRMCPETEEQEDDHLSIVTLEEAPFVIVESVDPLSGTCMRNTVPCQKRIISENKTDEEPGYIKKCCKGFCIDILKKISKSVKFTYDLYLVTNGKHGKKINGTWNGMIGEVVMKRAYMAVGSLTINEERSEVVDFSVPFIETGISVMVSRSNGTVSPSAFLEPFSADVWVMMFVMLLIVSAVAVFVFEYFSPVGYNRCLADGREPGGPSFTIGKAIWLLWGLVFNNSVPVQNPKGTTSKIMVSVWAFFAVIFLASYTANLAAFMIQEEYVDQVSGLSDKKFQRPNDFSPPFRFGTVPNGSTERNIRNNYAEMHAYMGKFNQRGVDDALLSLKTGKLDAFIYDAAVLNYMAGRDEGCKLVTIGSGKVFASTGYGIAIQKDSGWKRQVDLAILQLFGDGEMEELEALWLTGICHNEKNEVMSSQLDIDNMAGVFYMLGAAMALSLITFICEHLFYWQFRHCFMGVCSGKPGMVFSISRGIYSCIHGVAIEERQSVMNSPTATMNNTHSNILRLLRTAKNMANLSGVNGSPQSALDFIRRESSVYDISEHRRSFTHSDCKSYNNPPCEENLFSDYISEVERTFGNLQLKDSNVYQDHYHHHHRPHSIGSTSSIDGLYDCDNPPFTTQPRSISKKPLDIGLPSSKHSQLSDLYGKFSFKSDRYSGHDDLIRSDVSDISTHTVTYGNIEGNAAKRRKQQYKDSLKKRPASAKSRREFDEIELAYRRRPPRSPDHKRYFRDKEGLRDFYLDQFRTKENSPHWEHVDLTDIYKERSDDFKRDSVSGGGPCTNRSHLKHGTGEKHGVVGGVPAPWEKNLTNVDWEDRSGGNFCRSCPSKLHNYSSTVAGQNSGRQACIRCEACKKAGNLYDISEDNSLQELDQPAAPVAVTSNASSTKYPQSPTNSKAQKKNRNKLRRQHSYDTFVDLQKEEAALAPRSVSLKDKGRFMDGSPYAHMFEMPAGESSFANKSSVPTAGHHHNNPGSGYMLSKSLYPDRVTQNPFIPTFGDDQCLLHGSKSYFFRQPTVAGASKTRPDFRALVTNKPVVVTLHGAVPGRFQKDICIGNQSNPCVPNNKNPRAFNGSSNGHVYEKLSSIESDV

`Oc1ccc2nc(CN3CCC(Cc4ccccc4)CC3)[nH]c2c1` showed a Ki of 3.09 nM.
